Measured values as given in PubChem BioAssay AID330 (DTP/NCI, 2004).
“And” between values parts separate entries of the source, which are not always exact repeats. Identical values can stand only once. Inconclusive results and toxic doses are left out. How the source made its calls: active means survival T/C of 150% or more; inactive means T/C below 125% in these data.

Tested on: P388 leukemia ip, CD2F1 mice, survival T/C
Experiment: NCI In Vivo Anticancer Drug Screen. Data for tumor model P388 Leukemia (intraperitoneal) in CD2F1 (CDF1) mice
Settings: endpoint: median survival time, higher = longer survival
Outline: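 Mice carrying the transplanted tumor received test compound or vehicle. Survival was recorded in each group, and the value is the treated-group measurement divided by that of the vehicle-treated control group.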

Measured: T/C

O=C1c2ccccc2C(=O)c2c(NCCNCCO)ccc(NCCNCCO)c21
inactive: dose: 0.1 mg/kg/injection, schedule: Q04DX003 (ip), vehicle: saline 108 % of control | dose: 0.3 mg/kg/injection, schedule: Q04DX003 (ip), vehicle: saline 116 % of control | dose: 0.5 mg/kg/injection, schedule: Q04DX003 (ip), vehicle: saline 118 % of control | dose: 1.0 mg/kg/injection, schedule: Q04DX003 (ip), vehicle: saline 110 % of control and 115 % of control | dose: 2.0 mg/kg/injection, schedule: Q04DX003 (ip), vehicle: saline 117 % of control | dose: 3.13 mg/kg/injection, schedule: Q01DX005 (iv), vehicle: saline 114 % of control | dose: 3.89 mg/kg/injection, schedule: Q01DX009 (sc), vehicle: saline 118 % of control | dose: 4.0 mg/kg/injection, schedule: Q04DX003 (ip), vehicle: saline 117 % of control | dose: 5.0 mg/kg/injection, schedule: Q01DX005 (iv), vehicle: saline 116 % of control | dose: 6.22 mg/kg/injection, schedule: Q04DX003 (iv), vehicle: saline 109 % of control and 118 % of control | dose: 7.78 mg/kg/injection, schedule: Q01DX001 (iv), vehicle: saline 107 % of control and 111 % of control | dose: 10.0 mg/kg/injection, schedule: Q01DX001 (iv), vehicle: saline 107 % of control | dose: 10.0 mg/kg/injection, schedule: Q04DX003 (iv), vehicle: saline 108 % of control | dose: 10.4 mg/kg/injection, schedule: Q04DX003 (iv), vehicle: saline 117 % of control | dose: 13.0 mg/kg/injection, schedule: Q01DX001 (iv), vehicle: saline 111 % of control and 112 % of control | dose: 15.0 mg/kg/injection, schedule: Q01DX009 (ip), vehicle: saline 113 % of control | dose: 20.0 mg/kg/injection, schedule: Q01DX001 (iv), vehicle: saline 115 % of control | dose: 21.6 mg/kg/injection, schedule: Q01DX001 (iv), vehicle: saline 117 % of control | dose: 24.0 mg/kg/injection, schedule: Q04DX003 (ip), vehicle: saline 116 % of control | dose: 25.0 mg/kg/injection, schedule: Q01DX009 (ip), vehicle: water 122 % of control | dose: 32.0 mg/kg/injection, schedule: Q04DX003 (ip), vehicle: Klucel (hydroxypropylcellulose) (HPC) 114 % of control | dose: 36.0 mg/kg/injection, schedule: Q01DX005 (ip), vehicle: saline 121 % of control
active: dose: 0.5 mg/kg/injection, schedule: Q01DX009 (ip), vehicle: water 165 % of control | dose: 1.0 mg/kg/injection, schedule: Q01DX009 (ip), vehicle: water 167 % of control | dose: 1.25 mg/kg/injection, schedule: Q01DX009 (ip), vehicle: saline 192 % of control | dose: 1.25 mg/kg/injection, schedule: Q01DX009 (ip), vehicle: water 155 % of control | dose: 2.0 mg/kg/injection, schedule: Q01DX009 (ip), vehicle: saline 199 % of control | dose: 3.13 mg/kg/injection, schedule: Q01DX005 (ip), vehicle: saline 169 % of control | dose: 3.89 mg/kg/injection, schedule: Q01DX009 (ip), vehicle: saline 200 % of control and 261 % of control | dose: 4.0 mg/kg/injection, schedule: Q01DX009 (ip), vehicle: saline 233 % of control | dose: 5.0 mg/kg/injection, schedule: Q01DX005 (ip), vehicle: saline 223 % of control | dose: 6.25 mg/kg/injection, schedule: Q01DX005 (ip), vehicle: saline 205 % of control | dose: 6.25 mg/kg/injection, schedule: Q01DX009 (ip), vehicle: water 156 % of control | dose: 6.48 mg/kg/injection, schedule: Q01DX009 (ip), vehicle: saline 207 % of control and 245 % of control | dose: 7.78 mg/kg/injection, schedule: Q01DX005 (ip), vehicle: saline 261 % of control | dose: 7.78 mg/kg/injection, schedule: Q04DX003 (ip), vehicle: saline 181 % of control | dose: 8.0 mg/kg/injection, schedule: Q04DX003 (ip), vehicle: Klucel (hydroxypropylcellulose) (HPC) 172 % of control | dose: 8.0 mg/kg/injection, schedule: Q04DX003 (ip), vehicle: saline 153 % of control | dose: 10.0 mg/kg/injection, schedule: Q01DX005 (ip), vehicle: saline 258 % of control | dose: 10.0 mg/kg/injection, schedule: Q04DX003 (ip), vehicle: saline 178 % of control | dose: 10.4 mg/kg/injection, schedule: Q04DX003 (ip), vehicle: saline 196 % of control and 208 % of control | dose: 10.8 mg/kg/injection, schedule: Q01DX009 (ip), vehicle: saline 209 % of control | dose: 10.8 mg/kg/injection, schedule: Q01DX009 (sc), vehicle: saline 178 % of control | dose: 12.5 mg/kg/injection, schedule: Q01DX005 (ip), vehicle: saline 241 % of control | dose: 12.5 mg/kg/injection, schedule: Q01DX009 (ip), vehicle: water 187 % of control | dose: 12.5 mg/kg/injection, schedule: Q04DX003 (ip), vehicle: saline 176 % of control | dose: 13.0 mg/kg/injection, schedule: Q01DX005 (iv), vehicle: saline 161 % of control | dose: 13.0 mg/kg/injection, schedule: Q04DX003 (ip), vehicle: saline 156 % of control and 203 % of control | dose: 13.8 mg/kg/injection, schedule: Q04DX003 (ip), vehicle: saline 209 % of control | dose: 16.0 mg/kg/injection, schedule: Q01DX009 (ip), vehicle: saline 177 % of control | dose: 16.0 mg/kg/injection, schedule: Q04DX003 (ip), vehicle: Klucel (hydroxypropylcellulose) (HPC) 175 % of control | dose: 17.3 mg/kg/injection, schedule: Q04DX003 (ip), vehicle: saline 216 % of control and 241 % of control | dose: 18.0 mg/kg/injection, schedule: Q01DX009 (sc), vehicle: saline 205 % of control | dose: 20.0 mg/kg/injection, schedule: Q01DX001 (ip), vehicle: saline 163 % of control | dose: 20.0 mg/kg/injection, schedule: Q01DX005 (iv), vehicle: saline 173 % of control | dose: 21.6 mg/kg/injection, schedule: Q01DX001 (ip), vehicle: saline 178 % of control and 213 % of control | dose: 25.0 mg/kg/injection, schedule: Q01DX005 (iv), vehicle: saline 178 % of control | dose: 25.0 mg/kg/injection, schedule: Q04DX003 (ip), vehicle: Klucel (hydroxypropylcellulose) (HPC) 157 % of control | dose: 25.0 mg/kg/injection, schedule: Q04DX003 (ip), vehicle: saline 246 % of control | dose: 28.8 mg/kg/injection, schedule: Q04DX003 (ip), vehicle: saline 252 % of control | dose: 30.0 mg/kg/injection, schedule: Q01DX009 (sc), vehicle: saline 227 % of control | dose: 32.0 mg/kg/injection, schedule: Q04DX003 (ip), vehicle: saline 166 % of control | dose: 36.0 mg/kg/injection, schedule: Q01DX001 (ip), vehicle: saline 209 % of control and 233 % of control | dose: 40.0 mg/kg/injection, schedule: Q01DX001 (ip), vehicle: saline 197 % of control | dose: 40.0 mg/kg/injection, schedule: Q01DX005 (ip), vehicle: saline 250 % of control | dose: 40.0 mg/kg/injection, schedule: Q04DX003 (ip), vehicle: saline 214 % of control | dose: 50.0 mg/kg/injection, schedule: Q04DX003 (ip), vehicle: Klucel (hydroxypropylcellulose) (HPC) 150 % of control and 174 % of control | dose: 50.0 mg/kg/injection, schedule: Q04DX003 (ip), vehicle: saline 192 % of control | dose: 60.0 mg/kg/injection, schedule: Q01DX001 (ip), vehicle: saline 218 % of control and 224 % of control | dose: 64.0 mg/kg/injection, schedule: Q04DX003 (ip), vehicle: Klucel (hydroxypropylcellulose) (HPC) 163 % of control | dose: 64.0 mg/kg/injection, schedule: Q04DX003 (ip), vehicle: saline 166 % of control and 201 % of control | dose: 80.0 mg/kg/injection, schedule: Q01DX001 (ip), vehicle: saline 241 % of control | dose: 96.0 mg/kg/injection, schedule: Q04DX003 (ip), vehicle: saline 152 % of control and 153 % of control | dose: 100.0 mg/kg/injection, schedule: Q01DX001 (ip), vehicle: saline 210 % of control | dose: 100.0 mg/kg/injection, schedule: Q04DX003 (ip), vehicle: Klucel (hydroxypropylcellulose) (HPC) 176 % of control and 178 % of control | dose: 128.0 mg/kg/injection, schedule: Q04DX003 (ip), vehicle: saline 173 % of control and 186 % of control | dose: 167.0 mg/kg/injection, schedule: Q01DX001 (ip), vehicle: saline 216 % of control | dose: 192.0 mg/kg/injection, schedule: Q04DX003 (ip), vehicle: saline 150 % of control | dose: 200.0 mg/kg/injection, schedule: Q04DX003 (ip), vehicle: Klucel (hydroxypropylcellulose) (HPC) 157 % of control
